biological target: T1, crosslinked smooth muscle actomyosin (chicken gizzard smooth muscle myosin subfragment-1 crosslinked to cardiac or skeletal actin) (Gallus gallus, UniProt P10587); assay: Lead optimization pyruvate kinase/horseradish peroxidase/pyruvate oxidase-coupled ATPase assay (compound dose response); assay type: biochemical; settings: read-out: IC50 Arithmetic Mean
T1 construct: chicken gizzard smooth muscle myosin subfragment-1; from tissue; host or cells: chicken gizzard
Protocol: Screening assays were performed using a pyruvate kinase and lactate dehydrogenase-coupled ATPase assay containing the following reagents: Potassium PIPES (50 mM), MgCl2 (3 mM), KCl (100 mM), ATP (0.15 mM), DTT (1 mM), BSA (0.1 mg/ml), NADH (0.5 mM), PEP (1.5 mM), pyruvate kinase (4 U/ml), lactate dehydrogenase (8 U/ml), and antifoam (50 ppm) (concentrations expressed are final assay concentrations). The pH was adjusted to 6.80 at 22° C. by addition of potassium hydroxide. Lead optimization assays were performed with a more sensitive pyruvate kinase/horseradish peroxidase/pyruvate oxidase-coupled ATPase assay containing the following reagents: Potassium PIPES (12 mM), MgCl2 (2 mM), KCl (100 mM), ATP (0.15 mM), BSA (0.05 mg/ml), potassium phosphate (2 mM), amplex red (0.1 mM), PEP (0.1 mM), pyruvate kinase (4 U/ml), horseradish peroxidase (0.5 U/ml), pyruvate oxidase (0.5 U/ml), and antifoam (50 ppm) (concentrations expressed are final assay concentrations). The pH was adjusted to 7.00 at 22° C. by addition of potassium hydroxide.
The protein components specific to this assay are chicken gizzard smooth muscle myosin subfragment-1 that has been chemically crosslinked to either cardiac or skeletal actin using an excess of 1-Ethyl-3-[3-dimethylaminopropyl]carbodiimide hydrochloride and N-hydroxysuccinimide. The exact concentration of the crosslinked smooth muscle myosin in the assay is determined empirically, by titration to achieve a desired rate of ATP hydrolysis. The concentration varies between protein preparations due to variations in the fraction of active molecules in each preparation.
Compound dose response assays are performed by first preparing a dilution series of test compound, each with an assay mixture containing potassium PIPES, MgCl2, KCl, ATP, BSA, potassium phosphate, amplex red, PEP, crosslinked smooth muscle actomyosin (subfragment-1), antifoam, and water. The assay is started by adding an equal volume of solution containing potassium Pipes, MgCl2, KCl, BSA, potassium phosphate, pyruvate kinase, horseradish peroxidase, pyruvate oxidase, antifoam, and water. ATP hydrolysis is monitored by measuring the fluorescence of amplex red (excitation at 480 nm, emission at 615 nm). The resulting dose response curve is fit by the 4 parameter equation y=Bottom+((Top-Bottom)/(1+((IC50/X)^Hill))). The IC50 is defined as the concentration at which ATPase activity is midway between the top and bottom of the dose response curve.

Compound	IC50 [nM]
CCc1ccc(NC(=O)OCC(C)(NC(=O)CNC(=O)OC(C)(C)C)C(=O)NCc2ccccc2Cl)cc1 (centres unmarked) [2-{2-[(tert-butoxy)carbonylamino]acetylamino}-N-[(2-chlorophenyl)methyl]-3-[N-(4-ethylphenyl)carbamoyloxy]-2-methylpropanamide]	19400
CCc1ccc(NC(=O)OCC2(C(=O)NCc3ccccc3OC)CCN(C(=O)CN)CC2)cc1 [(1-(2-aminoacetyl)-4-{[N-(4-ethylphenyl)carbamoyloxy]methyl}(4-piperidyl))-N-[(2-methoxyphenyl)methyl]carboxamide]	2160
CCc1ccc(NC(=O)N(CCN)CC2(C(=O)NCc3ccccc3Cl)CCN(C(=O)CN)CC2)cc1 [N-[(1-(2-aminoacetyl)-4-{N-[(2-chlorophenyl)methyl]carbamoyl}(4-piperidyl))methyl]-N-(2-aminoethyl)[(4-ethylphenyl)amino]carboxamide]	16400
CCc1ccc(NC(=O)OCC2(C(=O)NCc3ccccc3Cl)CCC2)cc1 [[({N-[(2-chlorophenyl)methyl]carbamoyl}cyclobutyl)methoxy]-N-(4-ethylphenyl)carboxamide]	1880
CCc1ccc(NC(=O)OCCN(CCN(C)C(=O)CN)C(=O)NCc2ccccc2Cl)cc1 [2-amino-N-[2-({[(2-chlorophenyl)methyl]amino}-N-{2-[N-(4-ethylphenyl)carbamoyloxy]ethyl}carbonylamino)ethyl]-N-methylacetamide]	5860
CCc1ccc(NC(=O)OCC2(C(=O)NCc3ccccc3Cl)CCN(C(=O)C3COCCN3C(=O)OC(C)(C)C)CC2)cc1 (centres unmarked) [tert-butyl 3-[(4-{N-[(2-chlorophenyl)methyl]carbamoyl}-4-{[N-(4-ethylphenyl)carbamoyloxy]methyl}piperidyl)carbonyl]morpholine-4-carboxylate]	1680
CCc1ccc(NC(=O)OCCCC(=O)NCc2ccccc2Cl)cc1 [N-[(2-chlorophenyl)methyl]-4-[N-(4-ethylphenyl)carbamoyloxy]butanamide]	3430
CCc1ccc(NC(=O)OCC2(C(=O)NCc3ccccc3Cl)CCN(C(=O)OC(C)(C)C)CC2)cc1 [tert-butyl 4-{N-[(2-chlorophenyl)methyl]carbamoyl}-4-{[N-(4-ethylphenyl)carbamoyloxy]methyl}piperidinecarboxylate]	3210
CCc1ccc(NC(=O)OCC2(C(=O)NCc3ncc[nH]3)CCN(C(=O)CNC(=O)OC(C)(C)C)CC2)cc1 [[(1-{2-[(tert-butoxy)carbonylamino]acetyl}-4-[N-(imidazol-2-ylmethyl)carbamoyl](4-piperidyl))methoxy]-N-(4-ethylphenyl)carboxamide]	1770
CCc1ccc(NC(=O)OCC(C)(NC(=O)CO)C(=O)NCc2ccccc2Cl)cc1 (centres unmarked) [N-[(2-chlorophenyl)methyl]-3-[N-(4-ethylphenyl)carbamoyloxy]-2-(2-hydroxyacetylamino)-2-methylpropanamide]	9180
CCc1ccc(NC(=O)OC[C@H](C)N(CC(=O)O)C(=O)NCc2ccccc2Cl)cc1 [2-(N-{(1S)-2-[N-(4-ethylphenyl)carbamoyloxy]-isopropyl}{[(2-chlorophenyl)methyl]amino}carbonylamino)acetic acid]	1670
CCc1ccc(NC(=O)OCC2(C(=O)NCc3ccccc3Cl)CCN(C(=O)[C@@H](C)NC(=O)OC(C)(C)C)CC2)cc1 [N-[(1R)-2-(4-{N-[(2-chlorophenyl)methyl]carbamoyl}-4-{[N-(4-ethylphenyl)carbamoyloxy]methyl}piperidyl)-1-methyl-2-oxoethyl](tert-butoxy)carboxamide]	12000
CCc1ccc(NC(=O)OCC(C)(NC(=O)[C@@H](N)CO)C(=O)NCc2ccccc2Cl)cc1 (stereo partly drawn) [2-((2S)-2-amino-3-hydroxypropanoylamino)-N-[(2-chlorophenyl)methyl]-3-[N-(4-ethylphenyl)carbamoyloxy]-2-methylpropanamide]	11200
CCc1ccc(NC(=O)NCC(C)(C)C(=O)NCc2ccccc2Cl)cc1 [N-[(2-chlorophenyl)methyl]-3-{[(4-ethylphenyl)amino]carbonylamino}-2,2-dimethylpropanamide]	8820
CCc1ccc(NC(=O)NCC2(C(=O)NCc3ccccc3Cl)CCN(C(=O)CO)CC2)cc1 [N-[(2-chlorophenyl)methyl][4-({[(4-ethylphenyl)amino]carbonylamino}methyl)-1-(2-hydroxyacetyl)(4-piperidyl)]carboxamide]	1880
CCc1ccc(NC(=O)NC(C)(C)C(=O)NCc2ccccc2Cl)cc1 [N-[(2-chlorophenyl)methyl]-2-{[(4-ethylphenyl)amino]carbonylamino}-2-methylpropanamide]	13600
N#Cc1ccc(NC(=O)OCC2(C(=O)NCc3ccccc3Cl)CCN(C(=O)CN)CC2)cc1 [(1-(2-aminoacetyl)-4-{[N-(4-cyanophenyl)carbamoyloxy]methyl}(4-piperidyl))-N-[(2-chlorophenyl)methyl]carboxamide]	7780
CCc1ccc(NC(=O)OCC2(C(=O)NCc3ccccc3Br)CCN(C(=O)CN(C)C(=O)OC(C)(C)C)CC2)cc1 [(tert-butoxy)-N-[2-(4-{N-[(2-bromophenyl)methyl]carbamoyl}-4-{[N-(4-ethylphenyl)carbamoyloxy]methyl}piperidyl)-2-oxoethyl]-N-methylcarboxamide]	2860

Now those with a lower IC50, led by results:

IC50 [nM]	Compound
1560	CCc1ccc(NC(=O)O[C@@H]2CCCN(C(=O)NCc3ccccc3Cl)C2)cc1 [{(3R)-3-[N-(4-ethylphenyl)carbamoyloxy]piperidyl}-N-[(2-chlorophenyl)methyl]carboxamide]
1530	CCc1ccc(NC(=O)OCC2(C(=O)NCc3ccccc3Cl)CCN(C(=O)C(N)CC(=O)O)CC2)cc1 (centres unmarked) [3-amino-4-(4-{N-[(2-chlorophenyl)methyl]carbamoyl}-4-{[N-(4-ethylphenyl)carbamoyloxy]methyl}piperidyl)-4-oxobutanoic acid]
1360	CCc1ccc(NC(=O)OCC2(C(=O)NCc3ccccc3Cl)CC=CC2)cc1 [N-[(2-chlorophenyl)methyl](1-{[N-(4-ethylphenyl)carbamoyloxy]methyl}cyclopent-3-enyl)carboxamide]
729	CCc1ccc(NC(=O)OCC2(C(=O)NCc3cccc(Cl)c3)CCN(C(=O)CN)CC2)cc1 [[(1-(2-aminoacetyl)-4-{N-[(3-chlorophenyl)methyl]carbamoyl}(4-piperidyl))methoxy]-N-(4-ethylphenyl)carboxamide]
724	CCc1ccc(NC(=O)OCC2(C(=O)NCc3ccccc3Cl)CCN(C(=O)[C@H](C)N)CC2)cc1 [(1-((2S)-2-aminopropanoyl)-4-{[N-(4-ethylphenyl)carbamoyloxy]methyl}(4-piperidyl))-N-[(2-chlorophenyl)methyl]carboxamide]
302	CCc1ccc(NC(=O)OCC2(C(=O)NCc3ccccc3Cl)CCN(C(=O)NC)CC2)cc1 [N-[(2-chlorophenyl)methyl](4-{[N-(4-ethylphenyl)carbamoyloxy]methyl}-1-(N-methylcarbamoyl)(4-piperidyl))carboxamide]
285	NCC(=O)N1CCC(COC(=O)Nc2ccc(C(F)(F)F)cc2)(C(=O)NCc2ccccc2Cl)CC1 [[1-(2-aminoacetyl)-4-({N-[4-(trifluoromethyl)phenyl]carbamoyloxy}methyl)(4-piperidyl)]-N-[(2-chlorophenyl)methyl]carboxamide]
223	CCc1ccc(NC(=O)OCCN(CCCCNC(=O)CN)C(=O)NCc2ccccc2Cl)cc1 [2-amino-N-[4-({[(2-chlorophenyl)methyl]amino}-N-{2-[N-(4-ethylphenyl)carbamoyloxy]ethyl}carbonylamino)butyl]acetamide]
168	CCc1ccc(NC(=O)OCC2(C(=O)NCc3ccccc3Br)CCN(C(=O)CNC)CC2)cc1 [[(4-{N-[(2-bromophenyl)methyl]carbamoyl}-1-[2-(methylamino)acetyl](4-piperidyl))methoxy]-N-(4-ethylphenyl)carboxamide]
143	CCc1ccc(NC(=O)OCC2(C(=O)NCc3ccccc3Cl)CCN(C(=O)C(N)CO)CC2)cc1 (centres unmarked) [(1-(2-amino-3-hydroxypropanoyl)-4-{[N-(4-ethylphenyl)carbamoyloxy]methyl}(4-piperidyl))-N-[(2-chlorophenyl)methyl]carboxamide]
120	CCc1ccc(NC(=O)OCC2(C(=O)NCc3ccccc3Cl)CCN(C(=O)C(O)CN)CC2)cc1 (centres unmarked) [(1-(3-amino-2-hydroxypropanoyl)-4-{[N-(4-ethylphenyl)carbamoyloxy]methyl}(4-piperidyl))-N-[(2-chlorophenyl)methyl]carboxamide]

Source: patent US8071625B2, “Certain chemical entities, compositions, and methods” (Cytokinetics, Inc., priority 2006, dated 2011)
